Results taken from US12404283B2, “c-MYC mRNA translation modulators and uses thereof in the treatment of cancer” (Anima Biotech Inc., priority 2022, dated 2025).

Tested on: c-Myc
Experiment: c-Myc immunofluorescence assay
Type: cell-based, human
Conditions: A549 cells, 24 hours treatment, anti-c-Myc immunofluorescence
How it was run: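 High-content imaging (20×) of PFA-fixed A549 cells immunostained for c-Myc with DAPI nuclei, after 24 h compound treatment at increasing concentrations. Per-cell c-Myc signal in identified cell regions was plotted against dose and fitted by logistic regression to give EC50.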

SMILES | Myc Efficacy (−LogEC50)
C#CCCC1(CCN(CC)CCCNC(=O)c2ccc3c(c2)sc2nc(-c4ccc(C(=O)NC)cc4)cn23)N=N1 [compound 323, N-(3-((2-(3-(but-3-yn-1-yl)-3H-diazirin-3-yl)ethyl)(ethyl)amino)propyl)-2-(4-(methylcarbamoyl)phenyl) benzo[d]imidazo[2,1-b]thiazole-7-carboxamide] | +++ (+++ ≥6)
C#CCCC1(CCN2CC[C@H](CNC(=O)c3ccc4c(c3)sc3nc(-c5ccc(C)cc5)cn34)C2)N=N1 [compound 324, (R)-N-((1-(2-(3-(but-3-yn-1-yl)-3H-diazirin-3-yl)ethyl)pyrrolidin-3-yl)methyl)-2-(p-tolyl)benzo[d]imidazo[2,1-b]thiazole-7-carboxamide] | ++ (++ ≥5 and <6)
C#CCCC1(CCN2CC[C@@H](CNC(=O)c3ccc4c(c3)sc3nc(-c5ccc(C)cc5)cn34)C2)N=N1 [compound 325, (S)-N-((1-(2-(3-(but-3-yn-1-yl)-3H-diazirin-3-yl)ethyl)pyrrolidin-3-yl)methyl)-2-(p-tolyl)benzo[d]imidazo[2,1-b]thiazole-7-carboxamide] | ++ (++ ≥5 and <6)
C#CCCC1(CCOc2ccccc2-c2cn3c(n2)sc2cc(C(=O)NCCCN4CCCCC4)ccc23)N=N1 [compound 326, 2-(2-(2-(3-(but-3-yn-1-yl)-3H-diazirin-3-yl)ethoxy)phenyl)-N-(3-(piperidin-1-yl)propyl)benzo[d]imidazo [2,1-b]thiazole-7-carboxamide] | ++ (++ ≥5 and <6)
C#CCCC1(CCOc2cccc(-c3cn4c(n3)sc3cc(C(=O)NCCCN(CC)CC)ccc34)c2)N=N1 [compound 327, 2-(3-(2-(3-(but-3-yn-1-yl)-3H-diazirin-3-yl)ethoxy)phenyl)-N-(3-(diethylamino)propyl)benzo [d]imidazo[2,1-b]thiazole-7-carboxamide] | + (+ >3 and <5)
CCN(CC)CCCNC(=O)c1ccc2c(c1)sc1nc(-c3ccc(C(=O)NC)cc3)nn12 [compound 328, N-(3-(diethylamino)propyl)-2-(4-(methylcarbamoyl)phenyl) benzo[4,5]thiazolo[3,2-b][1,2,4]triazole-6-carboxamide] | ++ (++ ≥5 and <6)
CNC(=O)c1ccc(-c2cn3c(n2)sc2cc(C(=O)N(C)CCCN4CCCCC4)ccc23)cc1 [compound 329, N-methyl-2-(4-(methylcarbamoyl)phenyl)-N-(3-(piperidin-1-yl)propyl)benzo[d]imidazo [2,1-b]thiazole-7-carboxamide] | + (+ >3 and <5)
CCN(CC)CCCNC(=O)c1ccc2c(c1)sc1nc(-c3ccncn3)cn12 [compound 330, N-(3-(diethylamino)propyl)-2-(pyrimidin-4-yl)benzo[d]imidazo[2,1-b]thiazole-7-carboxamide] | + (+ >3 and <5)
CCN(CC)CCCNC(=O)c1ccc2c(c1)sc1nc(-c3ccc(CNC4CC4)cc3F)cn12 [compound 331, 2-(4-((cyclopropylamino)methyl)-2-fluorophenyl)-N-(3-(diethylamino)propyl)benzo [d]imidazo[2,1-b]thiazole-7-carboxamide] | +++ (+++ ≥6)
CCN(CC)CCCN(C)C(=O)c1ccc2c(c1)sc1nc(-c3ccc(C(=O)NC)cc3F)cn12 [compound 333, N-(3-(diethylamino)propyl)-2-(2-fluoro-4-(methylcarbamoyl)phenyl)-N-methylbenzo[d]imidazo[2,1-b]thiazole-7-carboxamide] | + (+ >3 and <5)
CCN(CC)CCCNC(=O)c1ccc2c(c1)sc1nc(-c3cc(F)c(CNC4CC4)cc3F)cn12 [compound 334, 2-(4-((cyclopropylamino)methyl)-2,5-difluorophenyl)-N-(3-(diethylamino)propyl)benzo [d]imidazo[2,1-b]thiazole-7-carboxamide] | ++ (++ ≥5 and <6)
CCN(CC)CCCNC(=O)c1ccc2c(c1)sc1nc(-c3ccc(CN)cc3)nn12 [compound 348, 2-(4-(aminomethyl)phenyl)-N-(3-(diethylamino)propyl)benzo [4,5]thiazolo[3,2-b][1,2,4]triazole-6-carboxamide] | ++ (++ ≥5 and <6)
CCNCCCNC(=O)c1ccc2c(c1)sc1nc(-c3ccc(C(=O)NC)cc3F)cn12 [compound 362, N-(3-(ethylamino)propyl)-2-(2-fluoro-4-(methylcarbamoyl)phenyl) benzo[d]limidazo[2,1-b]thiazole-7-carboxamide] | ++ (++ ≥5 and <6)
CNC(=O)c1ccc(-c2cn3c(n2)sc2cc(C(=O)NC4CCNCC4)ccc23)c(F)c1 [compound 363, 2-(2-fluoro-4-(methylcarbamoyl)phenyl)-N-(piperidin-4-yl)benzo[d]imidazo[2,1-b]thiazole-7-carboxamide] | ++ (++ ≥5 and <6)
CNC(=O)c1ccc(-c2cn3c(n2)sc2cc(NC(=O)C4CCNCC4)ccc23)c(F)c1 [compound 364, N-(2-(2-fluoro-4-(methylcarbamoyl)phenyl)benzo[d]imidazo[2,1-b]thiazol-7-yl)piperidine-4-carboxamide] | ++ (++ ≥5 and <6)
CCN(CC)CCCC(=O)Nc1ccc2c(c1)sc1nc(-c3ccc(C(=O)NC)cc3F)cn12 [compound 365, 4-(7-(4-(diethylamino)butanamido)benzo[d]imidazo[2,1-b]thiazol-2-yl)-3-fluoro-N-methylbenzamide] | ++ (++ ≥5 and <6)
O=C(NCCCN1CCCCC1)c1ccc2c(c1)sc1nc(-c3ccc(CNC4CC4)cc3F)cn12 [compound 368, 2-(4-((cyclopropylamino)methyl)-2-fluorophenyl)-N-(3-(piperidin-1-yl)propyl)benzo[d]imidazo [2,1-b]thiazole-7-carboxamide] | +++ (+++ ≥6)
NCc1ccc(-c2cn3c(n2)sc2cc(C(=O)NCCCN4CCCCC4)ccc23)c(Cl)c1 [compound 369, 2-(4-(aminomethyl)-2-chlorophenyl)-N-(3-(piperidin-1-yl)propyl)benzo[d]imidazo [2,1-b]thiazole-7-carboxamide] | +++ (+++ ≥6)
NCc1ccc(-c2cn3c(n2)sc2cc(C(=O)NCCCN4CCCCC4)ccc23)c(C2CC2)c1 [compound 370, 2-(4-(aminomethyl)-2-cyclopropylphenyl)-N-(3-(piperidin-1-yl)propyl)benzo[d]imidazo [2,1-b]thiazole-7-carboxamide] | +++ (+++ ≥6)
NCc1ccc(-c2cn3c(n2)sc2cc(C(=O)NCCCN4CCCCC4)ccc23)c(C(F)F)c1 [compound 371, 2-(4-(aminomethyl)-2-(difluoromethyl)phenyl)-N-(3-(piperidin-1-yl)propyl)benzo[d]imidazo [2,1-b]thiazole-7-carboxamide] | ++ (++ ≥5 and <6)
NCc1ccc(-c2cn3c(n2)sc2cc(C(=O)NCCCN4CCCCC4)ccc23)c(C(F)(F)F)c1 [compound 372, 2-(4-(aminomethyl)-2-(trifluoromethyl)phenyl)-N-(3-(piperidin-1-yl)propyl)benzo[d]imidazo [2,1-b]thiazole-7-carboxamide] | ++ (++ ≥5 and <6)
O=C(NCCCN1CCCCC1)c1ccc2c(c1)sc1nc(-c3ccc(C4CCCN4)cc3)cn12 (stereo not drawn) [compound 373, N-(3-(piperidin-1-yl)propyl)-2-(4-(pyrrolidin-2-yl)phenyl)benzo[d]imidazo [2,1-b]thiazole-7-carboxamide] | +++ (+++ ≥6)
NCc1ccc(-c2cn3c(n2)sc2cc(C(=O)NCCCN4CCCCC4)ccc23)c(F)c1 [compound 374, 2-(4-(aminomethyl)-2-fluorophenyl)-N-(3-(piperidin-1-yl)propyl)benzo[d]imidazo [2,1-b]thiazole-7-carboxamide] | +++ (+++ ≥6)
NCc1ccc(-c2cn3c(n2)sc2cc(C(=O)NCCCN4CCCCC4)ccc23)cc1F [compound 375, 2-(4-(aminomethyl)-3-fluorophenyl)-N-(3-(piperidin-1-yl)propyl)benzo[d]imidazo [2,1-b]thiazole-7-carboxamide] | +++ (+++ ≥6)
NCc1ccc(-c2cn3c(n2)sc2cc(C(=O)NCCCN4CCCCC4)ccc23)cc1Cl [compound 376, 2-(4-(aminomethyl)-3-chlorophenyl)-N-(3-(piperidin-1-yl)propyl)benzo[d]imidazo [2,1-b]thiazole-7-carboxamide] | +++ (+++ ≥6)
NCc1ccc(-c2cn3c(n2)sc2cc(C(=O)NCCCN4CCCCC4)ccc23)cc1C(F)(F)F [compound 378, 2-(4-(aminomethyl)-3-(trifluoromethyl)phenyl)-N-(3-(piperidin-1-yl)propyl)benzo[d]imidazo [2,1-b]thiazole-7-carboxamide] | +++ (+++ ≥6)
NCc1ccc(-c2cn3c(n2)sc2cc(C(=O)NCCCN4CCCCC4)ccc23)cc1C(F)F [compound 379, 2-(4-(aminomethyl)-3-(difluoromethyl)phenyl)-N-(3-(piperidin-1-yl)propyl)benzo[d]imidazo [2,1-b]thiazole-7-carboxamide] | +++ (+++ ≥6)
Cc1cc(-c2cn3c(n2)sc2cc(C(=O)NCCCN4CCCCC4)ccc23)ccc1CN [compound 381, 2-(4-(aminomethyl)-3-methylphenyl)-N-(3-(piperidin-1-yl)propyl)benzo[d]imidazo [2,1-b]thiazole-7-carboxamide] | +++ (+++ ≥6)
NCc1c(F)cc(-c2cn3c(n2)sc2cc(C(=O)NCCCN4CCCCC4)ccc23)cc1F [compound 383, 2-(4-(aminomethyl)-3,5-difluorophenyl)-N-(3-(piperidin-1-yl)propyl)benzo[d]imidazo [2,1-b]thiazole-7-carboxamide] | ++ (++ ≥5 and <6)
NCc1c(F)cc(-c2cn3c(n2)sc2cc(C(=O)NCCCN4CCCCC4)ccc23)cc1Cl [compound 384, 2-(4-(aminomethyl)-3-chloro-5-fluorophenyl)-N-(3-(piperidin-1-yl)propyl)benzo[d]imidazo [2,1-b]thiazole-7-carboxamide] | ++ (++ ≥5 and <6)
